Source: ChEMBL document CHEMBL2203035, “Synthesis and docking studies of novel antitumor benzimidazoles” (Bioorg Med Chem, 2012)

What was measured:
A549 [1] = assay: Downregulation of uPA protein expression in human A549 cell extract at 0.55 uM after 48 hrs by ELISA; type: functional
Raji [2] = assay: Inhibition of tumor promotion in human Raji cells assessed as TPA-induced Epstein-Barr virus early antigen activation at 100 mol ratio/TPA after 48 hrs by indirect immunofluorescence analysis relative to TPA alone; type: functional; parameters: scale not given: the % may be the effect or the level left
MCF7 [3] = assay: cells; details: Homo sapiens, MCF7, 48 h
Description: Cytotoxicity against human MCF7 cells after 48 hrs by sulforhodamine B assay

A549 [4] = assay: Downregulation of uPA protein expression in human A549 cell extract at 0.137 uM after 48 hrs by ELISA (reference value: 11.0000 +/-1.60 ng/ml); type: functional
A549 [5] = assay: Downregulation of uPA protein expression in human A549 cell extract at 1.10 uM after 48 hrs by ELISA (reference value: 11.0000 +/-1.60 ng/ml); type: functional
A549 [6] = assay: Downregulation of uPA protein expression in human A549 cell extract at 1.10 uM after 48 hrs by ELISA; type: functional
MCF7 [7] = assay: Downregulation of uPA protein expression in human MCF7 cell extract at 0.35 uM after 48 hrs by ELISA (reference value: 1 1.4000 +/- 1.40 ng/ml); type: functional
MCF7 [8] = assay: Downregulation of uPA protein expression in human MCF7 cell extract at 0.175 uM after 48 hrs by ELISA (reference value: 1 1.4000 +/- 1.40 ng/ml); type: functional
A549 [9] = assay: Downregulation of uPA protein expression in human A549 cell extract at 0.137 uM after 48 hrs by ELISA; type: functional
MCF7 [10] = assay: Downregulation of uPA protein expression in human MCF7 cell extract at 0.70 ug/well after 48 hrs by ELISA (reference value: 1 1.4000 +/- 1.40 ng/ml)
A549 [11] = assay: Downregulation of uPA protein expression in human A549 cell extract at 0.275 uM after 48 hrs by ELISA (reference value: 11.0000 +/-1.60 ng/ml); type: functional
[12] = target: Urokinase plasminogen activator surface receptor (Homo sapiens, UniProt Q03405); assay: Binding affinity to uPAR
A549 [13] = assay: Downregulation of uPA protein expression in human A549 cell extract at 0.55 uM after 48 hrs by ELISA (reference value: 11.0000 +/-1.60 ng/ml); type: functional
Raji [14] = assay: Inhibition of tumor promotion in human Raji cells assessed as TPA-induced Epstein-Barr virus early antigen activation at 1000 mol ratio/TPA after 48 hrs by indirect immunofluorescence analysis relative to TPA alone; type: functional; parameters: scale not given: the % may be the effect or the level left
MCF7 [15] = assay: Downregulation of uPA protein expression in human MCF7 cell extract at 0.087 uM after 48 hrs by ELISA (reference value: 1 1.4000 +/- 1.40 ng/ml); type: functional
Raji [16] = assay: Inhibition of tumor promotion in human Raji cells assessed as TPA-induced Epstein-Barr virus early antigen activation at 500 mol ratio/TPA after 48 hrs by indirect immunofluorescence analysis relative to TPA alone; type: functional; parameters: scale not given: the % may be the effect or the level left
A549 [17] = assay: Downregulation of uPA protein expression in human A549 cell extract at 0.275 uM after 48 hrs by ELISA; type: functional
A549 [18] = assay: Cytotoxicity against human A549 cells after 72 hrs by alamar blue assay; type: functional, cell-based; details: A549, 72 h
Raji [19] = assay: Inhibition of tumor promotion in human Raji cells assessed as TPA-induced Epstein-Barr virus early antigen activation at 10 mol ratio/TPA after 48 hrs by indirect immunofluorescence analysis relative to TPA alone; type: functional; parameters: scale not given: the % may be the effect or the level left
MCF7 [20] = assay: Downregulation of uPA protein expression in human MCF7 cell extract at 0.15 uM after 48 hrs by ELISA (reference value: 1 1.4000 +/- 1.40 ng/ml); type: functional
MCF7 [21] = assay: Downregulation of uPA protein expression in human MCF7 cell extract at 0.60 uM after 48 hrs by ELISA (reference value: 1 1.4000 +/- 1.40 ng/ml); type: functional
MCF7 [22] = assay: Downregulation of uPA protein expression in human MCF7 cell extract at 0.075 uM after 48 hrs by ELISA (reference value: 1 1.4000 +/- 1.40 ng/ml); type: functional
MCF7 [23] = assay: Downregulation of uPA protein expression in human MCF7 cell extract at 0.30 uM after 48 hrs by ELISA (reference value: 1 1.4000 +/- 1.40 ng/ml); type: functional
A549 [24] = assay: Downregulation of uPA protein expression in human A549 cell extract at 0.05 uM after 48 hrs by ELISA (reference value: 11.0000 +/-1.60 ng/ml); type: functional
A549 [25] = assay: Downregulation of uPA protein expression in human A549 cell extract at 0.40 uM after 48 hrs by ELISA (reference value: 11.0000 +/-1.60 ng/ml); type: functional
A549 [26] = assay: Downregulation of uPA protein expression in human A549 cell extract at 0.20 uM after 48 hrs by ELISA (reference value: 11.0000 +/-1.60 ng/ml); type: functional
A549 [27] = assay: Downregulation of uPA protein expression in human A549 cell extract at 0.10 uM after 48 hrs by ELISA (reference value: 11.0000 +/-1.60 ng/ml); type: functional

Chain of Urokinase plasminogen activator surface receptor (Q03405 whole entry): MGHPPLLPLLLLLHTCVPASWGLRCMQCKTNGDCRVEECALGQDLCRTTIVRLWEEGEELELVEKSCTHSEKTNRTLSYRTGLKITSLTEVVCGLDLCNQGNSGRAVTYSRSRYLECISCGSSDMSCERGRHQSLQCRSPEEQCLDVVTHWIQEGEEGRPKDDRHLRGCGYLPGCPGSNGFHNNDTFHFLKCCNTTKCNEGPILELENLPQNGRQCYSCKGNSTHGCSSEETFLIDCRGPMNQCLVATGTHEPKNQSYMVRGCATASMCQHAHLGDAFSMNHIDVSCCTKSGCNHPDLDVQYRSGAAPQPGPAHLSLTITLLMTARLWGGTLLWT

Compound: Nc1c(-c2nc3ccccc3[nH]2)cc(-c2ccccc2)n1-c1ccncc1
- Activity (A549 [1]): 56%
- Activity (Raji [2]): 78.6%
- IC50 (MCF7 [3]): 0.705 µg/well
- Activity (A549 [4]): 6.2 ng/mL
- Activity (A549 [5]): 2.7 ng/mL
- Activity (A549 [6]): 75%
- Activity (MCF7 [7]): 9 ng/mL
- Activity (MCF7 [8]): 8.7 ng/mL
- Activity (A549 [9]): 44%
- Activity (MCF7 [10]): 9.4 ng/mL
- Activity (A549 [11]): 5.2 ng/mL
- Ki [12]: 0.001 nM
- Activity (A549 [13]): 4.8 ng/mL
- Activity (Raji [14]): 15.3%
- Activity (MCF7 [15]): 9.8 ng/mL
- Activity (Raji [16]): 46.9%
- Activity (A549 [17]): 53%
- IC50 (A549 [18]): 1100 nM
- Activity (Raji [19]): 100%

Compound: COc1cccc2c1C(=O)c1c(O)c3c(c(O)c1C2=O)C[C@@](O)(C(=O)CO)C[C@@H]3O[C@H]1C[C@H](N)[C@H](O)[C@H](C)O1 [DOXORUBICIN]
- Activity (MCF7 [20]): 3.2 ng/mL
- Activity (MCF7 [21]): 2.75 ng/mL
- Activity (MCF7 [22]): 3.4 ng/mL
- Activity (MCF7 [23]): 3 ng/mL

Compound: CO[C@@]12[C@H](COC(N)=O)C3=C(C(=O)C(C)=C(N)C3=O)N1C[C@@H]1N[C@@H]12 [MITOMYCIN]
- Activity (A549 [24]): 4.3 ng/mL
- Activity (A549 [25]): 2.4 ng/mL
- Activity (A549 [26]): 2.6 ng/mL
- Activity (A549 [27]): 3.3 ng/mL
